The target in the experiment is Sigma non-opioid intracellular receptor 1 (Homo sapiens, UniProt Q99720). The experiment can be described thus: Receptor Radioligand Assay: To investigate binding properties of test compounds to human σ1 receptor, transfected HEK-293 membranes and [3H](+)-pentazocine (Perkin Elmer, NET-1056), as the radioligand, were used. The assay was carried out with 7 μg of membrane suspension, 5 nM of [3H](+)-pentazocine in either absence or presence of either buffer or 10 μM Haloperidol for total and non-specific binding, respectively. Binding buffer contained Tris-HCl 50 mM at pH 8. Plates were incubated at 37° C. for 120 minutes. After the incubation period, the reaction mix was then transferred to MultiScreen HTS, FC plates (Millipore), filtered and plates were washed 3 times with ice-cold 10 mM Tris-HCL (pH7.4). Filters were dried and counted at approximately 40% efficiency in a MicroBeta scintillation counter (Perkin-Elmer) using EcoScint liquid scintillation cocktail.

Molecules are shown by their SMILES. Where only a bound is given, the exact number is not on record here.

Sequence of Sigma non-opioid intracellular receptor 1 (Q99720 whole entry): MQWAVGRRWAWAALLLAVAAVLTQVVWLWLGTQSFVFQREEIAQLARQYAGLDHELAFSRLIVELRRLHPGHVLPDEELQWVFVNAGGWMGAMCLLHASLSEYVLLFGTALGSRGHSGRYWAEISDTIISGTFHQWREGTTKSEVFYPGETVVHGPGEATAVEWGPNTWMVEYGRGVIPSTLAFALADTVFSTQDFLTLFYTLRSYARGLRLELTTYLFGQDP

As a reminder, the Ki is the dissociation constant of the complex between target and ligand, obtained from inhibition or displacement. Regarding `CCN1CC(C2CCN(CCC(C)C)CC2)OC2(CC2)C1` (stereo unspecified), the Ki is below 500 nM.
